The source of these data is ChEMBL document CHEMBL1201862, “PubChem BioAssay data set” (2004).

Test [1] has as its target Transthyretin (Homo sapiens, UniProt P02766). Briefly: Luminescence-based cell-based high throughput dose response assay to identify activators of Transthyretin (TTR) transcription. In kind it is functional.
Test [2] in a line: Luminescence Cell-Based Dose Response HTS to Identify Activators of Luciferase Translation or Activity in H4 […] Cells. [Related pubchem assays: 1829 (Project Summary), 1814 (Primary HTS)]. It counts as functional.
For test [3], the system named is H4. Briefly: Luminescence Cell-Based Dose Response HTS to Identify Activators of 5'UTR Stem-Loop Driven Prion Protein mRNA Translation in H4 Neuroglioblastoma Cells. [Related pubchem assays: 1829 (Project Summary), 1814 (Primary HTS)]. Conditions: Homo sapiens. It counts as functional.
Test [4] can be described thus: Luminescence Cell-Based Dose Confirmation HTS to Identify Activators of 5'UTR Stem-Loop Driven Alpha-Synuclein mRNA Translation in H4 Neuroglioblastoma Cells. [Related pubchem assays: 1829 (Project Summary), 1814 (Primary HTS)]. In kind it is functional.
Test [5] can be described thus: cells. Conditions: A549.
A short description of test [6]: microbe, parasite or virus in culture. In kind it is functional. Conditions: Mycobacterium tuberculosis.
Test [7] in a line: cells. The conditions noted are these: HEK293.
Test [8] deals with Protein disulfide-isomerase (Homo sapiens, UniProt P07237). Description: inhibition of PDI-mediated insulin reduction – biochemical, turbidity, dry powder samples, set 2, confirmation (AID 652146).
A short description of test [9]: toxicity toward immortalized ovarian surface epithelium – cell-based, plate reader, dry powder samples, cytotoxicity control for PAX8 inhibitor project, dose response (AID 743045). It counts as functional.
The nature of test [10]: OVCAR8 cell viability loss – plate reader, dry powder samples, PAX8 project, dose response (AID 743197). Conditions: OVCAR-8. In kind it is functional, cell-based.
In test [11] the target is Paired box protein Pax-8 (Homo sapiens, UniProt Q06710). Briefly: PAX8 transcriptional activity inhibition in RMG-I – RMG-I cells, luciferase, cherry-pick, dose response (AID 687027).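 Note: luciferase reporter driven by Pax8 target thyroperoxidase promoter measured by SteadyGlo luminescence.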 In kind it is functional, cell-based.
A short description of test [12]: IGROV1 cell killing – plate reader, dry powder samples, PAX8 inhibitor project, dose response (AID 743043). It counts as functional, cell-based. The conditions noted are these: IGROV-1.
Test [13] can be described thus: A2780 cell killing – plate reader, dry powder samples, cytotoxicity control, dose response (AID 743046). It counts as functional, cell-based.
The nature of test [14]: OVCAR-3 cell viability loss – plate reader, dry powder samples, PAX8 inhibitor project, dose response (AID 743044). It counts as functional, cell-based.
Test [15] deals with HEK293. Briefly: viability loss in HEK293T cells – cell-based, ATP luminescence, cherry-pick samples, cytotoxicity control, dose response (AID 687005).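 Note: cells exposed to compound for 48 hours.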 It counts as functional. Conditions: Homo sapiens.
Test [16] in a line: HEK293 Cytotoxicity Assay Measured in Cell-Based System Using Plate Reader - 7071-01_Inhibitor_Dose_CherryPick_Activity_Set2. It counts as functional.
Test [17] in a line: inhibitors of TRPM1-promoter reporter in SK-MEL-5 – cell-based, luciferase, dry powder, set 8, MITF inhibitor project, dose response (AID 624430). In kind it is functional.
Test [18] is described as follows: MITF: Counter assay: A375 proliferation Measured in Cell-Based System Using Plate Reader - 2084-03_Inhibitor_Dose_DryPowder_Activity_Set8. The conditions noted are these: A-375. It counts as functional.
Test [19] in a line: MITF Orthogonal Assay: SK-MEL-5 CTG Assay Measured in Cell-Based System Using Plate Reader - 2084-02_Inhibitor_Dose_DryPowder_Activity_Set7. It counts as functional.
The nature of test [20]: HEK293T viability loss – cell-based, ATP luminescence, dry powder, Set6, cytotoxicity control, dose response (AID 743142). In kind it is functional. The conditions noted are these: HEK293.
The nature of test [21]: viability loss in A549 lung cancer cells – cell-based, CellTiter-Glo luminescence, dry powder, set 3, cytotoxicity control, dose response (AID 743146). In kind it is functional.
The target of test [22] is Metabotropic glutamate receptor 5 (Rattus norvegicus, UniProt P31424). Briefly: Identification of a glycine sulfonamide based non-MPEP site positive allosteric potentiator (PAM) of mGlu5 (calcium_assay). In kind it is functional.
Test [23] deals with Fatty acid synthase (Homo sapiens, UniProt P49327). Briefly: inhibition of human FAS-TE enzyme activity – biochemical, endpoint fluorescence intensity, powder samples, SAR follow-up (AID 652164). In kind it is functional.
In test [24] the target is RNA-editing ligase 1, mitochondrial (Trypanosoma brucei brucei, UniProt P86926). Briefly: inhibition of trypanosome RNA editing ligase – biochemical, fluorescence, Trypanosoma brucei, dose response (AID 1117295). It counts as functional.
Test [25] addresses T1, Histone-lysine N-methyltransferase NSD2 (Homo sapiens, UniProt O96028).
T1 sequence (O96028 whole entry): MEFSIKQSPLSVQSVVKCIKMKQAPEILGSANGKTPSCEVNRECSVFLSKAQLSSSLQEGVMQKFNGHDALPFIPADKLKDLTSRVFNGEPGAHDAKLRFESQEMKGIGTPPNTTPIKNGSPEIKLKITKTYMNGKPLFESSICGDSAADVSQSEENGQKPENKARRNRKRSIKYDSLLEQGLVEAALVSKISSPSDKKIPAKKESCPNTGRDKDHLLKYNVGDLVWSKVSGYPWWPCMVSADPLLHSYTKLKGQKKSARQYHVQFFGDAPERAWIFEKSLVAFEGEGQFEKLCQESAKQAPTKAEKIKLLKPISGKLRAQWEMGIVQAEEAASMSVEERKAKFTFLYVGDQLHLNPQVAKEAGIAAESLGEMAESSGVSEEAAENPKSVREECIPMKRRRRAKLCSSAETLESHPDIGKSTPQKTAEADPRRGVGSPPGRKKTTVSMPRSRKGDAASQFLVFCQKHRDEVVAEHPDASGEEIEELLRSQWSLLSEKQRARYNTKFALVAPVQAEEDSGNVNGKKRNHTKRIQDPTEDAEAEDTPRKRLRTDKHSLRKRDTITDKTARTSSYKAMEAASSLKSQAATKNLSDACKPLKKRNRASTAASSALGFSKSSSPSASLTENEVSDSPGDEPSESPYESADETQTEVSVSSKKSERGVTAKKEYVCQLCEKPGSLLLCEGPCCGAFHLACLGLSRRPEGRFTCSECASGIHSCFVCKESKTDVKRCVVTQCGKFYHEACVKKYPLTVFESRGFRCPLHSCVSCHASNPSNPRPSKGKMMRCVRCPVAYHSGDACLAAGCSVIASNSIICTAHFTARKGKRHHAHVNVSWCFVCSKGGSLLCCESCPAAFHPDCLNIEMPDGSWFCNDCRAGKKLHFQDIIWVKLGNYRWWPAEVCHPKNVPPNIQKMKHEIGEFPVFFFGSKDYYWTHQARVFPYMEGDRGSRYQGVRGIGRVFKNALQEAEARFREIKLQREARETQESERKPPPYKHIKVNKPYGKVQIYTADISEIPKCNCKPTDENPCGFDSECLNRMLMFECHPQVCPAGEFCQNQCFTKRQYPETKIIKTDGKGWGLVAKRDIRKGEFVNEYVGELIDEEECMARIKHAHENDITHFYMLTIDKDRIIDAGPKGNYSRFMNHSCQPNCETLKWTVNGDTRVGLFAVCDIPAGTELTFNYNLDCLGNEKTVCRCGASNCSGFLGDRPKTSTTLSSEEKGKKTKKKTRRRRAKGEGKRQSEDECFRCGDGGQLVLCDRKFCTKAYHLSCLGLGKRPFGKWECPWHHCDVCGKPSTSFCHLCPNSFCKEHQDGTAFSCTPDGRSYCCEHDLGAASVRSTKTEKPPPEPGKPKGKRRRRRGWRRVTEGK
It counts as biochemical.

The target in test [26] is Genome polyprotein (dengue virus type 2, UniProt P29990). Description: flavivirus cap methylation enzyme inhibition – biochemical, confirmation dose response, primary screen (AID 588689). In kind it is functional.
Test [27] concerns the target Induced myeloid leukemia cell differentiation protein Mcl-1 (Homo sapiens, UniProt Q07820). It counts as functional.
The target in test [28] is T2, Mannose-6-phosphate isomerase (Homo sapiens, UniProt P34949).
T2 sequence (P34949 whole entry): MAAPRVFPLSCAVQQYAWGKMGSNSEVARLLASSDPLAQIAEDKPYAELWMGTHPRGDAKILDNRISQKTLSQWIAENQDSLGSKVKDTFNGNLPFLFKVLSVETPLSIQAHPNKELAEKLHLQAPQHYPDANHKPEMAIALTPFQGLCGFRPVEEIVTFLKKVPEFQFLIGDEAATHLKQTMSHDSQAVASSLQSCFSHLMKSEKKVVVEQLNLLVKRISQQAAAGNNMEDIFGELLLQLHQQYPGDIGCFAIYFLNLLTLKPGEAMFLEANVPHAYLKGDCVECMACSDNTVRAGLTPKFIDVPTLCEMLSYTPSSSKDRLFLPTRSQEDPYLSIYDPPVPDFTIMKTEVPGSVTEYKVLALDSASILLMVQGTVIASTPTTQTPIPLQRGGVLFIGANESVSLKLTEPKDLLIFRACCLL
Description: MPI inhibition at elevated mannose 6-phosphate – biochemical, fluorescence intensity, high mannose 6-phosphate, primary screen (AID 1220).

A short description of test [29]: cells. Conditions: HEK293. The source holds these as a separate data set.

Molecules are shown by their SMILES. Calls of active or inactive are those of the source.

Metabotropic glutamate receptor 5, sequence (P31424 whole entry): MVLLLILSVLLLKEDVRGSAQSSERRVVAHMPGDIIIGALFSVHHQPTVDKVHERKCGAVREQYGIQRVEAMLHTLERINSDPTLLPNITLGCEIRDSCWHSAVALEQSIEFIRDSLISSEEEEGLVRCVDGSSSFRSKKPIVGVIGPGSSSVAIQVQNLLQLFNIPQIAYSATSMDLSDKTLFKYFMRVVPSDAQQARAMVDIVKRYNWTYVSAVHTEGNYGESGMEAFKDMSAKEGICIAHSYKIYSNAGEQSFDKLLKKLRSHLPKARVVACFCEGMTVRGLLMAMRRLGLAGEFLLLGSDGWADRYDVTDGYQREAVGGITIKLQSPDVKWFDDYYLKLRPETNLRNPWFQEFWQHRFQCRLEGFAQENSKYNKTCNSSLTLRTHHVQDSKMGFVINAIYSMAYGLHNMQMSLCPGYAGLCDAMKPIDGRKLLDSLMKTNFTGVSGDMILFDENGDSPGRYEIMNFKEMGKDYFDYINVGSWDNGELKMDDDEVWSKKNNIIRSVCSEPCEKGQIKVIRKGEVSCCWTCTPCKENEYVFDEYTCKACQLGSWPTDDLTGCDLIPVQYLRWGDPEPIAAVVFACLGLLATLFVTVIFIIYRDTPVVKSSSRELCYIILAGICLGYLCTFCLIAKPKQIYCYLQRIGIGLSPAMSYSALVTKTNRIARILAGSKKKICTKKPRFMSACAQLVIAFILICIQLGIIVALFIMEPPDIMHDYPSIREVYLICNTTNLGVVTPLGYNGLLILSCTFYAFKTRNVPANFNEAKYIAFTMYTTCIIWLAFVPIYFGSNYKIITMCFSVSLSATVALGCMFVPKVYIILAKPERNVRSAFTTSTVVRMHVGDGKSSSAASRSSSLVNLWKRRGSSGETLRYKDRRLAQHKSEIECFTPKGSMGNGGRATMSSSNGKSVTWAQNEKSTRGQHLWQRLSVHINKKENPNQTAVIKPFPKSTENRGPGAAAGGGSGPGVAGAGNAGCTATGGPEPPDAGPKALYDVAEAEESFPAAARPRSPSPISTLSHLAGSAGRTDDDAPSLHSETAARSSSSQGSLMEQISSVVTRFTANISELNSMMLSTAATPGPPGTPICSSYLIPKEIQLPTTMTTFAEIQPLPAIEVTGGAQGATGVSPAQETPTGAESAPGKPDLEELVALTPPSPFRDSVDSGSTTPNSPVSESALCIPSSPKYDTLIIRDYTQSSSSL
Paired box protein Pax-8, sequence (Q06710 whole entry): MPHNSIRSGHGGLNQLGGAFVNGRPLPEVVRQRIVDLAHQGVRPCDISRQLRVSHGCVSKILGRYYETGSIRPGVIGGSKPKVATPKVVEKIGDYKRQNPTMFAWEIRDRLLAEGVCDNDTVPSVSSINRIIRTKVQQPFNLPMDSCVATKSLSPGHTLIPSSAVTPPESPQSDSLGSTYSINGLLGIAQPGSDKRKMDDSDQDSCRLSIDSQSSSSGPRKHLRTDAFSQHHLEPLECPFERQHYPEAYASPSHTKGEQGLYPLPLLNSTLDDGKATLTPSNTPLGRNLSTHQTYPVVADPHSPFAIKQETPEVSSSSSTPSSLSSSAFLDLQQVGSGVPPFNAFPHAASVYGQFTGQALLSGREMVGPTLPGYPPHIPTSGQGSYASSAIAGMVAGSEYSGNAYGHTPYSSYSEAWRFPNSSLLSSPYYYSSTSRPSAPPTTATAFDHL
Fatty acid synthase, sequence (P49327 whole entry): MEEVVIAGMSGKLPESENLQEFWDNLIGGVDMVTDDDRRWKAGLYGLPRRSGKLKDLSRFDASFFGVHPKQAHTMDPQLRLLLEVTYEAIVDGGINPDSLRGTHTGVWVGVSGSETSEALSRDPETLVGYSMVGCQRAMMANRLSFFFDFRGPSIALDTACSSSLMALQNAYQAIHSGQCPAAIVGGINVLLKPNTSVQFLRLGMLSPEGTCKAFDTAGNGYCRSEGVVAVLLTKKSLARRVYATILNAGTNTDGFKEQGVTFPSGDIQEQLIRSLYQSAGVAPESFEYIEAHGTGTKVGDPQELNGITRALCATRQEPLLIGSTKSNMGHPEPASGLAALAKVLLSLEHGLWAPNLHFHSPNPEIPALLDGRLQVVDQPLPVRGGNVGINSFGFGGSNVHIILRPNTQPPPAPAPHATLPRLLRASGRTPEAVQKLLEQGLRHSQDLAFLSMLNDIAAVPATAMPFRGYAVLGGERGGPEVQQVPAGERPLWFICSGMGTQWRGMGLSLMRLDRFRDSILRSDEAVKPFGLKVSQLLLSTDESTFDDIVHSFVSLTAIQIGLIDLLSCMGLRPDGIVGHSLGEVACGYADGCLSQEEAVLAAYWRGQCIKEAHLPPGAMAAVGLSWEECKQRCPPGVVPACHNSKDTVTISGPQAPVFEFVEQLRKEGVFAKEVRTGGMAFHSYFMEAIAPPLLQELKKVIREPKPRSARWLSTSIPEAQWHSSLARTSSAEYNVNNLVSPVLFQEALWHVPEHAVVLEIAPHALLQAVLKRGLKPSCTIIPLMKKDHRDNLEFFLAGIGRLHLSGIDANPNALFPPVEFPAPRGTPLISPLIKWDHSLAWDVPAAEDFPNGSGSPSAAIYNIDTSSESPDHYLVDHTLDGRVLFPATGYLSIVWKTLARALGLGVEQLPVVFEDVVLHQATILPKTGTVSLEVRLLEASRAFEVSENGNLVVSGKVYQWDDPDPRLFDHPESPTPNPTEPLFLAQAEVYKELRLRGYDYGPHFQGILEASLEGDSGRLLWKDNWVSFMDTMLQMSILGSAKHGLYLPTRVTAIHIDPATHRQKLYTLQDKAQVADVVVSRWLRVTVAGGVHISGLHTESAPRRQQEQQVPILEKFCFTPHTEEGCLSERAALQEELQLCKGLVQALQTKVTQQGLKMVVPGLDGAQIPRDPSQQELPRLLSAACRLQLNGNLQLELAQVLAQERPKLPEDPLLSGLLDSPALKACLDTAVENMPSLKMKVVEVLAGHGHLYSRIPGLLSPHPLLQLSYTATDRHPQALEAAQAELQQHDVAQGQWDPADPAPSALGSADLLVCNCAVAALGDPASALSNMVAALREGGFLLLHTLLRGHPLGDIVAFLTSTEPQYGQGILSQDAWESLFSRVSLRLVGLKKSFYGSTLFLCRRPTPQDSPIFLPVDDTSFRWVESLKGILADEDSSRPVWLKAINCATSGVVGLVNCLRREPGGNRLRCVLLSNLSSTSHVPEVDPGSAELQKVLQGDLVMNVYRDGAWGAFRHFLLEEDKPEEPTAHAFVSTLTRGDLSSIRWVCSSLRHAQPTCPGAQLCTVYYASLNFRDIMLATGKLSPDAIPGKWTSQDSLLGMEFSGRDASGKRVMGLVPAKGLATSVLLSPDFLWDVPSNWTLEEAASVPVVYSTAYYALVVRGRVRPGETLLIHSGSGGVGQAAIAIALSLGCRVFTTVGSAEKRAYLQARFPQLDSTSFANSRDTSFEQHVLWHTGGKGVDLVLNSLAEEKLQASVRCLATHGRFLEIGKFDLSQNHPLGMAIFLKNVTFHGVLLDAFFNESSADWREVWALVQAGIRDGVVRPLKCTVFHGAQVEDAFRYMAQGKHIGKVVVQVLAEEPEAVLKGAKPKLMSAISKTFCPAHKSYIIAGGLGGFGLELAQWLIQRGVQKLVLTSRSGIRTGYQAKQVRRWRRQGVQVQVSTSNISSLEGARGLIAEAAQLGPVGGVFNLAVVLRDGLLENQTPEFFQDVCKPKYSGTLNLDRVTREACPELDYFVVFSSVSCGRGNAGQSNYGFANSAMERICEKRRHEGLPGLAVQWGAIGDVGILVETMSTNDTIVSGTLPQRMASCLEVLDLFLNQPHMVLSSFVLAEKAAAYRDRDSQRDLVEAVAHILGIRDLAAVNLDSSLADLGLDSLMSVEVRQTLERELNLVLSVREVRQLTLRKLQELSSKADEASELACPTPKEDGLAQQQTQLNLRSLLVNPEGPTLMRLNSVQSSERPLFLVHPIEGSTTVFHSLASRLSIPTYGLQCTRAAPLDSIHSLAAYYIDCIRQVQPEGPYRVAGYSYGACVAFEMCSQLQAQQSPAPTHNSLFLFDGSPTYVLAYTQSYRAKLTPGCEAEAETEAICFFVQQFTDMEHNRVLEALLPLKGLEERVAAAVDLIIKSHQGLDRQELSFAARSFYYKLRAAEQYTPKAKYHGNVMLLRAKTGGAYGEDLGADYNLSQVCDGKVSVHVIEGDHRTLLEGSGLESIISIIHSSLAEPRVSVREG
Protein disulfide-isomerase, sequence (P07237 whole entry): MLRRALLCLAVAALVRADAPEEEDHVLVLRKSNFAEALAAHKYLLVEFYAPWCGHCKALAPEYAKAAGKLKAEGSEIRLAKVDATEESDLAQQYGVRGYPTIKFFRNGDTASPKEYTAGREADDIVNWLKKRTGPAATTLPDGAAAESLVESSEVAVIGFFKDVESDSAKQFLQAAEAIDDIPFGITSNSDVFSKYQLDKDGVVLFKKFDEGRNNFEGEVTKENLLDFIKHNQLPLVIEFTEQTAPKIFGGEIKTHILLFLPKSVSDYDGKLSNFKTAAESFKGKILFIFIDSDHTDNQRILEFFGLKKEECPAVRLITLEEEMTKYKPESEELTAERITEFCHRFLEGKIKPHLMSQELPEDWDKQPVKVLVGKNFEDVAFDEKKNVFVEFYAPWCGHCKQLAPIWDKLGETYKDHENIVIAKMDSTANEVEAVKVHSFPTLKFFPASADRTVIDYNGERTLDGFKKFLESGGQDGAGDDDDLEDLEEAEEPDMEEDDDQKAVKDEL
Induced myeloid leukemia cell differentiation protein Mcl-1, sequence (Q07820 whole entry): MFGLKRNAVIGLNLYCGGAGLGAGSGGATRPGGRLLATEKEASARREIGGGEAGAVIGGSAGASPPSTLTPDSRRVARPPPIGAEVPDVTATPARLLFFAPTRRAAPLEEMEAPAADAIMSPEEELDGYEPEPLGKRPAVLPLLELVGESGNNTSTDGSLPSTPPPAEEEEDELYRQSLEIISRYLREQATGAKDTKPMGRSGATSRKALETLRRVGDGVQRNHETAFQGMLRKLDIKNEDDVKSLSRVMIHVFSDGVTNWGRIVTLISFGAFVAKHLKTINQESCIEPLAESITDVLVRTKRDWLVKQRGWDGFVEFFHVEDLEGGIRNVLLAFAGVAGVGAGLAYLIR

`c1ccc(Sc2ncnc3c2oc2ccccc23)nc1`: the EC50 (commonly the concentration needed to bring the measured effect to its halfway point) in [1] is > 167 µM (inactive); in test [2] it was 26.6 µM (active); in test [3] it was 90.1 µM (active); in test [4], 4.69 µM (active).
`N=c1oc2cc(O)ccc2cc1C(=O)Nc1ccc(Br)cc1`: the AC50 in test [5] and in test [7] was > 52 µM (inactive) each time. In addition, the CC50 in [6] is 23.7 µM (active).
As for `CCOC(=O)C1(CCOc2ccccc2)CCN(Cc2ccc(OC)cc2)CC1`, in test [8], the AC50 (usually the concentration at which the activity in the assay is half-maximal) is > 30 µM (inactive).
Regarding `Cc1c(C(=O)NCc2cccc([N+](=O)[O-])c2)sc(=O)n1Cc1cccc(F)c1`, the AC50 in [5] is 48.4 µM (active).
For `C[C@@H]1CCCCO[C@@H](CN(C)CC2CCCCC2)[C@H](C)CN([C@H](C)CO)C(=O)c2cc(NS(=O)(=O)c3ccc(Cl)cc3)ccc2O1`, the half-maximal activity concentration (AC50) in test [9] was 41.4 µM (active); in test [10], 25.6 µM (active); in test [11], 5.5 µM (active); in test [12] it was 33.5 µM (active); in [13], 20.4 µM (active); in test [14], 23.4 µM (active).
Regarding `O=C(C[C@@H]1CC[C@H]2[C@@H](COC[C@@H](O)CN2Cc2ccc(Cl)cc2)O1)NCc1cccc(F)c1`, the concentration at half-maximal activity (AC50) in test [15] and in [16] was 21.4 µM (active) in each case.
As for `CCS(=O)(=O)NCC[C@H]1CC[C@H](NS(=O)(=O)c2cccc(F)c2)[C@H](CO)O1`, the half-maximal activity concentration (AC50) in test [15] and in test [16] was 33.5 µM (active) each time.
In the case of `COc1ccc(S(=O)(=O)Nc2ccc3c(c2)C(=O)N([C@H](C)CO)C[C@H](C)[C@@H](CN(C)S(=O)(=O)c2ccc(C)cc2)OCCCC[C@H](C)O3)cc1`, the concentration at half-maximal activity (AC50) is 9.47 µM (active) in test [9]; 14.8 µM (active) in [10]; 6.27 µM (active) in test [11]; 33.5 µM (active) in test [12]; 44 µM (active) in test [13]; 11.8 µM (active) in test [14].
On to `O=C1C(Nc2ccccc2)=CC(=O)c2ncccc21`, for which the concentration at half-maximal activity (AC50) in [17] is 413 nM (active); in test [18] it was 16.2 µM (active); in test [19], 195 nM (active).
Take `CCOC(=O)C1CCN(C(=O)OC(C)(C)C)CC1`: the AC50 in test [8] was > 30 µM (inactive).
For `N#Cc1ccc(C(=O)NCCC(=O)N[C@@H]2CCCc3ccccc32)cc1`, the half-maximal activity concentration (AC50) in test [20] was 17.1 µM (active); in test [21] it was > 52 µM (inactive).
Turning to `CS(=O)(=O)N(CC(=O)Nc1cccnc1F)c1ccccc1Cl`, the EC50 in test [22] stood at 1690 nM.
As to `CN(C(=O)CN(c1ccccc1Cl)S(C)(=O)=O)c1ccccc1`, in test [22], the EC50 was 10000 nM (inconclusive).
In the case of `CCC(=O)Nc1nc(-c2ccc(S(=O)(=O)N(C)C)cc2)cs1`, the IC50 – broadly, the concentration needed to halve the response being measured – in test [23] was 1.08 µM (active).
Take `O=C(CCNC(=O)c1ccc2c(c1)OC(F)(F)O2)N[C@@H]1CCCc2ccccc21`: the concentration at half-maximal activity (AC50) is 7.51 µM (active) in [20] and > 52 µM (inactive) in test [21].
As to `CCN(CC)S(=O)(=O)c1ccc(-c2csc(NC(=O)C3CCCC3)n2)cc1`, the half-inhibitory concentration (IC50) in test [23] is 1.18 µM (active).
As for `O=C(Cc1csc(N2CCOCC2)n1)N/N=C/c1ccc(O)c(O)c1O`, the IC50 in test [24] was > 96.6 µM (inactive); in test [26], > 100 µM (active); in [27], 3.52 µM (active); in test [28], 8.94 µM (active). Besides, the AC50 in test [25] was > 20 µM (inactive).
For `CSc1nc2ccccc2n1CCOc1ccccc1`, the AC50 in test [29] was > 52 µM (inactive).
